Like-named read-outs stand apart in the source and are kept apart here.
Columns and labels:
[1] = test system: Xanthomonas maltophilia 948; format: cell-based
B. anthracis = format: cell-based, Bacillus anthracis; settings: vegetative cells; component alone; 24 h
B. pumilus RJ 0055 = format: cell-based, Bacillus pumilus
L. mesenteroides B 512F = format: cell-based, Leuconostoc mesenteroides
B. subtilis = format: cell-based, Bacillus subtilis
B. cereus = format: cell-based, Bacillus cereus
B. subtilis spores = format: cell-based, Bacillus subtilis
[2] = test system: B. pumilus RJ 0055 spores; format: cell-based, Bacillus pumilus
[3] = test system: Pseudomonas aeruginosa ATCC 1942
B. anthracis spores = format: cell-based, Bacillus anthracis; settings: component alone
B. cereus spores = format: cell-based, Bacillus cereus
[4] = component alone, 24 hours at 35° C.
[5] = vegetative cells, component alone, 24 h

Structure (SMILES): OO [H2O2, hydrogen peroxide]
- MIC [1]: 0.005 wt %
- MIC (B. anthracis): 0.01 wt %
- MIC (B. pumilus RJ 0055): 0.025 wt %
- MIC (L. mesenteroides B 512F): 0.006 wt %
- MIC (S typhimurium ATCC 14028): 0.01 wt %
- MIC (B. subtilis): 0.025 wt %
- MIC (B. cereus): 0.025 wt %
- MIC (E. coli B ATCC 23226): 0.01 wt %
- MIC (B. subtilis spores): 5.0 wt %
- MIC [2]: 4.0 wt %
- MIC (Listeria monocytogenes): 0.005 wt %
- MIC [3]: 150 weight ppm
- MIC (B. anthracis spores): 1.0 wt %
- MIC (B. cereus spores): 5.0 wt %

Structure (SMILES): [Na+].[Na+].[O-][O-] [Sodium Peroxide, sodium peroxide]
- MIC [3, 4]: 150 weight ppm

Structure (SMILES): [Na+].[O-]Cl [NaHClO3, sodium hypochlorite]
- MIC [1, 5]: 0.01 wt %
- MIC (B. anthracis): 0.05 wt %
- MIC (B. pumilus RJ 0055; [5]): 0.1 wt %
- MIC (L. mesenteroides B 512F; [5]): 0.035 wt %
- MIC (S typhimurium ATCC 14028; [5]): 0.02 wt %
- MIC (B. subtilis; [5]): 0.1 wt %
- MIC (B. cereus; [5]): 0.1 wt %
- MIC (E. coli B ATCC 23226; [5]): 0.02 wt %
- MIC (B. subtilis spores; […], component alone): 4.0 wt %
- MIC ([2]; […], component alone): 3.5 wt %
- MIC (Listeria monocytogenes; [5]): 0.05 wt %
- MIC [3, 4]: 500 weight ppm
- MIC (B. anthracis spores): 1.0 wt %
- MIC (B. cereus spores; […], component alone): 4.0 wt %
